Laboratory results from paper PMC3463139 (Journal of medicinal chemistry, 2012).
Where two headings read alike, the source gives them in different places.

How the values were obtained:
hA1AR [1] = molecular target: T1, hA1AR (Homo sapiens, UniProt P30542); test: Radioligand binding at hA1AR; details: for AR subtype selectivity in binding (in words): A1, A2A and A3 ARs compared
T1 sequence (P30542 1-326): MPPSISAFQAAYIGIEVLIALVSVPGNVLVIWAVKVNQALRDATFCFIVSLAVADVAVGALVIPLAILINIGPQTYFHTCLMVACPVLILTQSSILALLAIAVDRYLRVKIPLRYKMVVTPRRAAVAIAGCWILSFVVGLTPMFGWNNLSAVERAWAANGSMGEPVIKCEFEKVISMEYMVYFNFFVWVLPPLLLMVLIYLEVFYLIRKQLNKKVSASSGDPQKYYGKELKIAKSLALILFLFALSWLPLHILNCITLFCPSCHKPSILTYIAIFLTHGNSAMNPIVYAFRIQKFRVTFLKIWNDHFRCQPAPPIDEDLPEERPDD

mice [2] = test: Subcutaneous metrazol; type: in vivo; details: for scMET model, number of animals protected from convulsions: qualitative
in vivo = details: male, CF No 1 albino, mouse, ip
mice [3] = test: Maximal electroshock; type: in vivo; details: for MES model, number of animals protected from convulsions: qualitative
hA1AR [4] = molecular target: T1, hA1AR; type: cell-based; details: for Agonist efficacy at A1AR (in words): cyclic AMP assay, 10 μM
hA3AR = molecular target: T2, hA3AR (Homo sapiens, UniProt P0DMS8); test: Radioligand binding at hA3AR; details: replacement of 2-Cl with 2-H
T2 sequence (P0DMS8 1-318): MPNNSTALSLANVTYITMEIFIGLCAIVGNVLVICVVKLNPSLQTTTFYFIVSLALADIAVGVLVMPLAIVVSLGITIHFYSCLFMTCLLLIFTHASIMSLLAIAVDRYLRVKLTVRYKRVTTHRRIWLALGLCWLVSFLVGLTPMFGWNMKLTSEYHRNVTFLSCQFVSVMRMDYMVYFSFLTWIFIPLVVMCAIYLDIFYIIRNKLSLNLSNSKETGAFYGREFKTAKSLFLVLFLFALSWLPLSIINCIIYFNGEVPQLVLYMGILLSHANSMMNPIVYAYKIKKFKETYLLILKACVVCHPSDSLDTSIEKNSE

mice [5] = test: Corneal kindled mouse model of partial seizures; type: in vivo; details: i.p.
mice [6] = test: 6 Hz minimal clonic seizure test; type: in vivo
hA1AR [7] = molecular target: T1, hA1AR; details: at 10 μM; relative to 44a (100%); ref Tosh et al.[20] or Gao et al. [21]; cited from earlier work
rat A1AR = details: read-out: Kd at rat A1AR; cited from earlier work

CC(C)[C@@H](Nc1nc(Cl)nc2c1ncn2[C@H]1[C@H](O)[C@H](O)[C@@H]2C[C@@H]21)C1CC1 [Compound 14, (1R,2R,3S,4R,5S)-4-(2-Chloro-6-((R)-1-cyclopropyl-2-methyl-propylamino)-9H-purin-9-yl)bicyclo[3.1.0]hexane-2,3-diol]
AR subtype selectivity in binding (in words) (hA1AR [1]): moderately selective for the A1AR

OC[C@H]1O[C@@H](n2cnc3c(NC4CCCC4)nc(Cl)nc32)[C@H](O)[C@@H]1O [Compound 44b, 2-chloro-N^6-cyclopentyladenosine, reference compound]
scMET model, number of animals protected from convulsions (mice [2]; 1 mg/kg i.p.): 1 out of 4 (1 mg/kg) | TD50 at 1 h (in vivo): 0.84 mg/kg | MES model, number of animals protected from convulsions (mice [3]; 1 mg/kg i.p.): 1 out of 4 at (1 mg/kg)

O=C(O)c1cnn(-c2nc(NC(C3CC3)C3CC3)c3ncn([C@H]4[C@H](O)[C@H](O)[C@@H]5C[C@@H]54)c3n2)c1 [Compound 43]
AR subtype selectivity in binding (in words) (hA1AR [1]): weak nonselective

O[C@@H]1[C@H](O)[C@@H]2C[C@@H]2[C@H]1n1cnc2c(NC(C3CCCC3)C3CCCC3)nc(Cl)nc21 [Compound 11, (1R,2R,3S,4R,5S)-4-(2-Chloro-6-(dicyclopentylmethylamino)-9H-purin-9-yl)bicyclo[3.1.0]hexane-2,3-diol]
inhibition at 10 µM (hA1AR [1]; read-out: % inhibition of radioligand binding, A1, at 10 μM, [3H]R-PIA, CHO cells): < 50%

NNc1nc(NC(C2CC2)C2CC2)c2ncn([C@H]3[C@H](O)[C@H](O)[C@@H]4C[C@@H]43)c2n1 [Compound 40]
AR subtype selectivity in binding (in words) (hA1AR [1]): nonselective

O[C@@H]1[C@H](O)[C@@H]2C[C@@H]2[C@H]1n1cnc2c(N[C@@H](c3ccccc3)C3CC3)nc(Cl)nc21 [Compound 20, (1R,2R,3S,4R,5S)-4-(2-Chloro-6-((R)-cyclopropylphenylmethylamino)-9H-purin-9-yl)bicyclo[3.1.0]hexane-2,3-diol]
Agonist efficacy at A1AR (in words) (hA1AR [4]): did not activate the A1AR | AR subtype selectivity in binding (in words) (hA1AR [1]): bound weakly at the three ARs

O[C@@H]1[C@H](O)[C@@H]2C[C@@H]2[C@H]1n1cnc2c(NC(C3CC3)C3CC3)ncnc21 [Compound 37a]
Increase of affinity at the A3AR relative to compound 10 (hA3AR): 28 fold

COC(=O)c1cnn(-c2nc(NC(C3CC3)C3CC3)c3ncn([C@H]4[C@H](O)[C@H](O)[C@@H]5C[C@@H]54)c3n2)c1 [Compound 42]
AR subtype selectivity in binding (in words) (hA1AR [1]): weak nonselective

O[C@@H]1[C@H](O)[C@@H]2C[C@@H]2[C@H]1n1cnc2c(NC(C3CC3)C3CC3)nc(Cl)nc21 [Compound 10]
Corneal kindled mouse model EC50 (±SE) (mice [5]; at 1 h post injection): 1.79 ± 0.71 mg/kg | Response in corneal kindling model (in words) (mice [5]; mice): active | scMET model, number of animals protected from convulsions (mice [2]; 3 mg/kg i.p.): No protection (3 mg/kg) | Response in scMET model (in words) (mice [2]; i.p.): inactive | 6 Hz model, animals protected (mice [6]; 30 mg/kg i.p. (highest dose tested)): 7 out of 8 | 6 Hz model, mice protected (mice [6]; […] i.p.): 4 out of 8 | Response in 6 Hz model (in words) (mice [6]; mice, i.p.): active | MES model, number of animals protected from convulsions (mice [3]; 3 mg/kg i.p.): 1 out of 4 (3 mg/kg) | Response in MES model (in words) (mice [3]; i.p.): inactive | % Inhibition, cyclic AMP, A1 (maximal efficacy) (hA1AR [7]): 80–100% | Agonist efficacy at A1AR (in words) (hA1AR [4]): full agonist

CCNC(=O)[C@H]1O[C@@H](n2cnc3c(N)ncnc32)[C@H](O)[C@@H]1O [Compound 45, 5′-N-ethylcarboxamidoadenosine, reference compound]
% Inhibition, cyclic AMP, A1 (maximal efficacy) (hA1AR [4]; at 10 μM, relative to effect (100%) of full agonist 44a at 10 μM, CHO cells, n = 3–5): 100±15% | Agonist efficacy at A1AR (in words) (hA1AR [4]): full agonist

O[C@@H]1[C@H](O)[C@@H]2C[C@@H]2[C@H]1n1cnc2c(NCC(C3CC3)C3CC3)nc(Cl)nc21 [Compound 7, (1R,2R,3S,4R,5S)-4-(2-Chloro-6-(2,2-dicyclopropylethylamino)-9H-purin-9-yl)bicyclo[3.1.0]hexane-2,3-diol]
AR subtype selectivity in binding (in words) (hA1AR [1]): nonselective

NCCNC(=O)Cc1ccc(NC(=O)Cc2ccc(Nc3ncnc4c3ncn4[C@@H]3O[C@H](CO)[C@@H](O)[C@H]3O)cc2)cc1 [Compound 46, N^6-[4-[[[4-[[[(2-Aminoethyl)amino]carbonyl]methyl]anilino]carbonyl]methyl]phenyl]adenosine, reference compound]
scMET model, number of animals protected from convulsions (mice [2]; 1 mg/kg i.p.): 5 out of 8 (1 mg/kg) | MES model, number of animals protected from convulsions (mice [3]; 2 mg/kg i.p.): 4 out of 8 (2mg/kg)

C[C@H](CSc1nc2ccccc2s1)Nc1nc(Cl)nc2c1ncn2[C@@H]1O[C@H](CO)[C@@H](O)[C@H]1O [NNC-21-0136, N^6-[R-(2-benzothiazolyl)thio-2-propyl]-2-chloroadenosine]
Kd (rat A1AR): 1.16 nM

O[C@@H]1[C@H](O)[C@@H]2C[C@@H]2[C@H]1n1cnc2c(N[C@H](c3ccccc3)C3CC3)nc(Cl)nc21 [Compound 21, (1R,2R,3S,4R,5S)-4-(2-Chloro-6-((S)-cyclopropylphenylmethylamino)-9H-purin-9-yl)bicyclo[3.1.0]hexane-2,3-diol]
AR subtype selectivity in binding (in words) (hA1AR [1]): bound weakly at the three ARs

CC(C)[C@H](Nc1nc(Cl)nc2c1ncn2[C@H]1[C@H](O)[C@H](O)[C@@H]2C[C@@H]21)C1CC1 [Compound 15, (1R,2R,3S,4R,5S)-4-(2-Chloro-6-((S)-1-cyclopropyl-2-methyl-propylamino)-9H-purin-9-yl)bicyclo[3.1.0]hexane-2,3-diol]
AR subtype selectivity in binding (in words) (hA1AR [1]): moderately selective for the A1AR
